Source: patent US20240148821A1, “PHARMACEUTICAL USE OF CYCLIC PEPTIDE COMPOUND” (CHUGAI SEIYAKU KABUSHIKI KAISHA, priority 2021, published 2024)
Bridge positions count the residues as written; N and C are the ends. Square brackets hold non-standard residues; d marks the D form. Peptide text beside a SMILES is read from it. * marks the point of attachment. hPhe(3,5-F2-4-CF3) = N[C@@H](CCc1cc(F)c(C(F)(F)F)c(F)c1)C(=O)O; hPhe(3-Cl-4-CF3) = N[C@@H](CCc1ccc(C(F)(F)F)c(Cl)c1)C(=O)O; hPhe(3-F,4-CF3) = N[C@@H](CCc1ccc(C(F)(F)F)c(F)c1)C(=O)O; NMePhe(4-Cl) = CN[C@@H](Cc1ccc(Cl)cc1)C(=O)O; NMeGly(cPent) = CN[C@H](C(=O)O)C1CCCC1; NMeCha = CN[C@@H](CC1CCCCC1)C(=O)O; Hyp = O=C(O)[C@@H]1C[C@@H](O)CN1; NMeChg = CN[C@H](C(=O)O)C1CCCCC1; NMeF = CN[C@@H](Cc1ccccc1)C(=O)O; NMeD = CN[C@@H](CC(=O)O)C(=O)O; NMeL = CN[C@@H](CC(C)C)C(=O)O; NMeV = CN[C@H](C(=O)O)C(C)C; d(β3hA) = C[C@@H](N)CC(=O)O; Morpholide = C1CN(*)CCO1; NMeA = CN[C@@H](C)C(=O)O; Piperidide = C1CCN(*)CC1; Ac5c = NC1(C(=O)O)CCCC1; Aze = O=C(O)[C@@H]1CCN1; Sar = CNCC(=O)O

Columns and labels:
[1] = system: large bowel carcinoma cell line LS 180; assay: In vivo antitumor activity, mouse xenograft model, LS 180; conditions: LS 180 (Colon) xenograft, 7 days
Text: (§1) Tumor growth inhibition rate (TGI %)=(1−TV/CV)×100

[2] = molecular target: protein-protein interaction between Kras and SOS1 (biotin-tagged human Kras loaded with GDP, His-tagged human SOS1) (Homo sapiens (Human), UniProt P01116, G12D); assay: Protein-protein interaction inhibition between Kras and SOS1 (KrasG12D-SOS PPI) using AlphaScreen; format: biochemical; conditions: AlphaScreen; biotin-tagged human Kras loaded with GDP, His-tagged human SOS1; read-out: KRAS G12D-SOS PPI IC50;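 note: kras produced in E. coli, Ni-coupled donor beads and streptavidin acceptor beads, excitation 680 nm with emission detected at 520–620 nm via singlet oxygen transfer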
[3] = system: various cancer cell lines (Ras mutation or amplification); assay: Measurement of cell growth inhibitory activity against various cancer cell lines (CellTiter-Glo); format: cell-based, human
[4] = system: Human pancreatic cancer cell line AsPC-1 (G12D mutation Kras); assay: AsPC-1 cell growth inhibition (AsPC-1 CGI); format: cell-based; conditions: read-out: AsPC-1 cell growth inhibition, 50% growth inhibitory concentration (IC50 value); 96 hours, CellTiter-Glo, values classified in ranges
A549 (NSCLC) = assay: In vivo antitumor activity, mouse xenograft model, A549; conditions: 10 days
Text: as §1

[5] = system: non-small cell lung cancer cell line NC1-1441 with a KRAS mutation; assay: In vivo antitumor activity, mouse xenograft model, NCI-H441; conditions: NCI-H441 (NSCLC) xenograft, 14 days
Text: as §1

human NRAS G13D (human) = human NRAS G13D (human) (UniProt P01111); assay: cell-based or functional assay
[6] = molecular target: human KRAS, gene copy number amplified (human) (UniProt P01116); assay: cell-based or functional assay
human KRAS G12C (human) = human KRAS G12C (human) (UniProt P01116); assay: cell-based or functional assay
human KRAS G12D (human) = human KRAS G12D (human) (UniProt P01116); assay: cell-based or functional assay
human KRAS G12V (human) = human KRAS G12V (human) (UniProt P01116); assay: cell-based or functional assay
human KRAS G12S (human) = human KRAS G12S (human) (UniProt P01116); assay: cell-based or functional assay
[7] = A4/Fuk, Non-Hodgkin lymphoma, KRAS Amp
[8] = MIA PaCa-2, Pancreas, KRAS G12C

IC50 [3, 7]	IC50 ([3]; A549, NSCLC, KRAS G12S)	IC50 ([3]; AGS, Stomach, KRAS G12D)	IC50 ([3]; AsPC-1, Pancreas, KRAS G12D)	IC50 ([3]; KURAMOCHI, Ovary, KRAS Amp)	IC50 ([3]; LS 180, Colon, KRAS G12D)	IC50 [3, 8]	IC50 ([3]; NCI-H441, NSCLC, KRAS G12V)	IC50 ([3]; NCI-H929, Myeloma, NRAS G13D)	IC50 ([3]; NOMO-1, AML, KRAS G13D)	IC50 ([3]; SW480, Colon, KRAS G12V)	IC50 [4]	Molecule	IC50 [2]	IC50 ([3]; SNU-1, Stomach, KRAS G12D)	other results
1.28 nM	1.09 nM	1.46 nM	3.33 nM	7.89 nM	5.39 nM	8.93 nM	2.87 nM	18.8 nM	29.1 nM	56.7 nM	≤ 20 nM	CC[C@H](C)[C@@H]1NC(=O)[C@H](CC(C)C)N(C)C(=O)C[C@@H](C(=O)N2CCOCC2)N(C)C(=O)[C@H](C2CCCC2)N(C)C(=O)C2(CCCC2)NC(=O)[C@@H]2CCCN2C(=O)[C@H](CCc2ccc(C(F)(F)F)c(Cl)c2)NC(=O)CN(C)C(=O)[C@H](CC2CCCCC2)N(C)C(=O)[C@@H]2CCN2C(=O)[C@H](C)N(C)C1=O [Compound 926, (5S,8S,11S,15S,18S,23aS,29S,35S,37aS)-8-((S)-sec-butyl)-29-(3-chloro-4-(trifluoromethyl)phenethyl)-35-(cyclohexylmethyl)-18-cyclopentyl-11-isobutyl-5,6,12,16,19,33,36-heptamethyl-15-(morpholine-4-carbonyl)docosahydro-2H,4H-spiro[azeto[2,1-u]pyrrolo[2,1-i][1,4,7,10,13,16,19,22,25,28,31]undecaazacyclotetratriacontine-21,1′-cyclopentan]-4,7,10,13,17,20,23,28,31,34,37(14H,22H)-undecaone] ([NMeL]I[NMeA][Aze][NMeCha][Sar][hPhe(3-Cl-4-CF3)]P[Ac5c][NMeGly(cPent)][NMeD]-Morpholide; lactam N-11)	0.99 nM	2.74 nM	TGI (%) ([1]; 15 mg/kg once daily): 29%; TGI (%) ([1]; 30 mg/kg once daily): 75%
0.65 nM	0.25 nM	0.48 nM	0.84 nM	2.63 nM	1.32 nM	1.81 nM	0.89 nM	4.62 nM	4.9 nM	9.6 nM	≤ 20 nM	CCO[C@@H]1C[C@H]2C(=O)NC3(CCCC3)C(=O)N(C)[C@@H](C3CCCC3)C(=O)N(C)[C@H](C(=O)N(C)C)CC(=O)N(C)[C@@H](CC(C)C)C(=O)N[C@@H]([C@@H](C)CC)C(=O)N(C)[C@@H](C)C(=O)N3CC[C@H]3C(=O)N(C)[C@@H](CC3CCCCC3)C(=O)N(C)CC(=O)N[C@@H](CCc3cc(F)c(C(F)(F)F)c(F)c3)C(=O)N2C1 [Compound 1201, (5S,8S,11S,1S,18S,23aS,25R,29S,35S,37aS)-8-((S)-sec-butyl)-35-(cyclohexymethyl)-18-cyclopentyl-29-(3,5-difluoro-4-(trifluoromethyl)phenethyl)-25-ethoxy-11-isobutyl-N,N,5,6,12,16,19,33,36-nonamethyl-4,7,10,13,17,20,23,28,31,34,37-undecaoxotetratriacontahydro-2H,4H-spiro[azeto[2,1-u]pyrrolo[2,1-i][1,4,7,10,13,16,19,22,25,28,31]undecaazacyclotetratriacontine-21,1′-cyclopentane]-15-carboxamide] ([NMeL]I[NMeA][Aze][NMeCha][Sar][hPhe(3,5-F2-4-CF3)][Hyp](Et)[Ac5c][NMeGly(cPent)][NMeD]-NMe2; lactam N-11 (inferred); C-terminus assumed)	–	–	IC50 ([3]; HEC-151, Endometrium, NRAS G12D): 2.3 nM; IC50 ([3]; PA-1, Ovary, NRAS G12D): 1.16 nM; TGI (%) ([5]; 3 mg/kg once daily): 68%; TGI (%) ([5]; 6 mg/kg once daily): 92%; TGI (%) ([5]; 10 mg/kg once daily): 104%
–	–	–	–	–	–	–	–	–	–	–	–	[NMeL]I[Sar][Sar][NMeCha][Sar][hPhe(3-Cl-4-CF3)]P[Ac5c][NMeChg]D-Piperidide (lactam N-11; not fully specified (residue 11)) [Compound 558]	–	–	IC50, cell growth inhibition (CellTiter-Glo), NCI-H929 (Myeloma) (human NRAS G13D (human)): 55.7 nM; IC50, cell growth inhibition (CellTiter-Glo), A4/Fuk (Non-Hodgkin lymphoma), KRAS Amp [6]: 5.83 nM; IC50, cell growth inhibition (CellTiter-Glo), KURAMOCHI (Ovary), KRAS Amp [6]: 23.4 nM; IC50, cell growth inhibition (CellTiter-Glo), MIA PaCa-2 (Pancreas) (human KRAS G12C (human)): 18.7 nM; IC50, cell growth inhibition (CellTiter-Glo), LS 180 (Colon) (human KRAS G12D (human)): 22.6 nM; IC50, cell growth inhibition (CellTiter-Glo), SNU-1 (Stomach) (human KRAS G12D (human)): 29.8 nM; IC50, cell growth inhibition (CellTiter-Glo), NCI-H441 (NSCLC) (human KRAS G12V (human)): 31.6 nM; IC50, cell growth inhibition (CellTiter-Glo), SW480 (Colon) (human KRAS G12V (human)): 17.5 nM; IC50, cell growth inhibition (CellTiter-Glo), A549 (NSCLC) (human KRAS G12S (human)): 7.98 nM

Molecule	IC50 [3, 7]	IC50 ([3]; A549, NSCLC, KRAS G12S)	IC50 ([3]; AGS, Stomach, KRAS G12D)	IC50 ([3]; AsPC-1, Pancreas, KRAS G12D)	IC50 ([3]; KURAMOCHI, Ovary, KRAS Amp)	IC50 ([3]; LS 180, Colon, KRAS G12D)	IC50 [3, 8]	IC50 ([3]; NCI-H441, NSCLC, KRAS G12V)	IC50 ([3]; NCI-H929, Myeloma, NRAS G13D)	IC50 ([3]; NOMO-1, AML, KRAS G13D)	IC50 ([3]; SW480, Colon, KRAS G12V)	IC50 [4]	IC50 [2]	IC50 ([3]; SNU-1, Stomach, KRAS G12D)	other results
CC[C@H](C)[C@@H]1NC(=O)[C@H](CC(C)C)N(C)C(=O)C[C@@H](C(=O)N2CCCCC2)N(C)C(=O)[C@H](C2CCCCC2)N(C)C(=O)C2(CCCC2)NC(=O)[C@@H]2CCCN2C(=O)[C@H](CCc2ccc(C(F)(F)F)c(Cl)c2)NC(=O)CN(C)C(=O)[C@H](CC2CCCCC2)N(C)C(=O)CN(C)C(=O)CN(C)C1=O [Compound 558, (3S,9S,18S,21S,25S,28S,34S)-3-[2-[3-chloro-4-(trifluoromethyl)phenyl]ethyl]-28-cyclohexyl-9-(cyclohexylmethyl)-21-isobutyl-7,10,13,16,22,26,29-heptamethyl-18-[(1S)-1-methylpropyl]-25-(piperidine-1-carbonyl)spiro[1,4,7,10,13,16,19,22,26,29,32-undecazabicyclo[32.3.0]heptatriacontane-31,1′-cyclopentane]-2,5,8,11,14,17,20,23,27,30,33-undecone] ([NMeL]I[Sar][Sar][NMeCha][Sar][hPhe(3-Cl-4-CF3)]P[Ac5c][NMeChg][NMeD]-Piperidide; lactam N-11)	5.83 nM	7.98 nM	–	–	23.4 nM	22.6 nM	18.7 nM	31.6 nM	55.7 nM	–	17.5 nM	–	1.8 nM	29.8 nM	TGI (%) (A549 (NSCLC); 10 mg/kg once daily): 46%; TGI (%) (A549 (NSCLC); 15 mg/kg once daily): 57%; TGI (%) (A549 (NSCLC); 30 mg/kg once daily): 106%
CC[C@H](C)[C@@H]1NC(=O)[C@H](C)N(C)C(=O)C[C@@H](C)NC(=O)[C@H](C(C)C)N(C)C(=O)[C@H](Cc2ccccc2)N(C)C(=O)[C@H](CC(C)C)N(C)C(=O)[C@H](CCc2ccc(C(F)(F)F)c(F)c2)NC(=O)CN(C)C(=O)[C@H](Cc2ccc(Cl)cc2)N(C)C(=O)CN(C)C(=O)CN(C)C1=O [Compound 1105] (cyclo(I[Sar][Sar][NMePhe(4-Cl)][Sar][hPhe(3-F,4-CF3)][NMeL][NMeF][NMeV][d(β3hA)][NMeA]))	–	–	–	–	–	–	–	–	–	–	–	> 500 nM	21 nM	–	–
